Results from patent US20240226025A1, “POLYNUCLEOTIDES ENCODING METHYLMALONYL-COA MUTASE FOR THE TREATMENT OF METHYLMALONIC ACIDEMIA” (ModernaTX, Inc., priority 2021, published 2024).

System: CD-1 mice
Experiment: Expression of luciferase induced by lipid nanoparticles in mice (bioluminescence)
Assay type: in vivo, mouse
Conditions: luciferase mRNA LNP
Procedure: To further assess potency of expression and metabolic stability of lipids of the disclosure, expression of luciferase was measured following administration to rodents of a nanoparticle of the disclosure comprising an mRNA containing luciferase.
Lipid nanoparticles including DSPC as a phospholipid, cholesterol as a structural lipid, Compound I as a PEG lipid, an ionizable amino lipid of Formula (II), and an mRNA encoding luciferase were intravenously administered to CD-1 mice and Sprague Dawley rats. […]

## CCCCCCCCC(CCCCCCCC)OC(=O)CCCCCCCN(CCCCCCCC(=O)OCC(CCCC)CCCCCCC)CCCNc1c(NC)c(=O)c1=O (stereo not shown) [Compound 10]
  Total Whole Body Flux @ 6 h (p/s): 4.6E+09 p/s
